Laboratory results published in ChEMBL document CHEMBL1201862, “PubChem BioAssay data set” (2004).
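Interpolation was linear, between the two tested concentrations surrounding the appropriate level; five concentrations were tested over 48 hours in 96-well plates. The concentration for 50% growth inhibition is given as GI50.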 Calls of active or inactive are those of the source. Cut-off read from the data, not from the text of the source: active = GI50 up to about 1.1 µM and inactive = higher.

Columns and labels:
Test in all cases: inhibition of tumour cell growth, NCI panel, 48 h
786-0 = tested on: 786-0
A498 = tested on: A498
A549 = tested on: A549
ACHN = tested on: ACHN
CAKI-1 = tested on: CAKI-1
CCRF-CEM = tested on: CCRF-CEM
COLO 205 = tested on: COLO 205
DLD-1 = tested on: DLD-1
DMS-114 = tested on: DMS-114
EKVX = tested on: EKVX
HCC 2998 = tested on: HCC 2998
HCT-116 = tested on: HCT-116
HL-60 = tested on: HL-60
HOP-18 = tested on: HOP-18
HOP-62 = tested on: HOP-62
HOP-92 = tested on: HOP-92
HT-29 = tested on: HT-29
IGROV-1 = tested on: IGROV-1
K562 = tested on: K562
KM-20L2 = tested on: KM-20L2
KM12 = tested on: KM12
LOX IMVI = tested on: LOX IMVI
LXFL 529 = tested on: LXFL 529
M14 = tested on: M14
M19-MEL = tested on: M19-MEL
MOLT-4 = tested on: MOLT-4
Malme-3M = tested on: Malme-3M
NCI-H226 = tested on: NCI-H226
NCI-H23 = tested on: NCI-H23
NCI-H460 = tested on: NCI-H460
NCI-H522 = tested on: NCI-H522
OVCAR-3 = tested on: OVCAR-3
OVCAR-4 = tested on: OVCAR-4
OVCAR-8 = tested on: OVCAR-8
RPMI-8226 = tested on: RPMI-8226
RXF 393 = tested on: RXF 393
RXF 631 = tested on: RXF 631
SF-268 = tested on: SF-268
SF-295 = tested on: SF-295
SF-539 = tested on: SF-539
SK-MEL-28 = tested on: SK-MEL-28
SK-MEL-5 = tested on: SK-MEL-5
SK-OV-3 = tested on: SK-OV-3
SN12C = tested on: SN12C
SNB-19 = tested on: SNB-19
SNB-75 = tested on: SNB-75
SNB-78 = tested on: SNB-78
SR = tested on: SR
SW-620 = tested on: SW-620
TK-10 = tested on: TK-10
U-251 = tested on: U-251
UACC-257 = tested on: UACC-257
UACC-62 = tested on: UACC-62
UO-31 = tested on: UO-31
XF498 = tested on: XF498
BT-549 = tested on: BT-549
DMS-273 = tested on: DMS-273
DU-145 = tested on: DU-145
HCT-15 = tested on: HCT-15
Hs-578T = tested on: Hs-578T
MCF7 = tested on: MCF7
MDA-MB-231 = tested on: MDA-MB-231
MDA-MB-435 = tested on: MDA-MB-435
MDA-N = tested on: MDA-N
OVCAR-5 = tested on: OVCAR-5
PC-3 = tested on: PC-3
SK-MEL-2 = tested on: SK-MEL-2
T47D = tested on: T47D

Cc1c(C)c2ccc(OC(C)C(=O)O)cc2oc1=O (stereo unspecified)
GI50 (786-0): > 100 µM (inactive) | GI50 (A498): > 100 µM (inactive) | GI50 (A549): > 100 µM (inactive) | GI50 (ACHN): > 100 µM (inactive) | GI50 (CAKI-1): > 100 µM (inactive) | GI50 (CCRF-CEM): > 100 µM (inactive) | GI50 (COLO 205): > 100 µM (inactive) | GI50 (DLD-1): > 100 µM (inactive) | GI50 (DMS-114): > 100 µM (inactive) | GI50 (EKVX): > 100 µM (inactive) | GI50 (HCC 2998): > 100 µM (inactive) | GI50 (HCT-116): > 100 µM (inactive) | GI50 (HL-60): > 100 µM (inactive) | GI50 (HOP-18): > 100 µM (inactive) | GI50 (HOP-62): > 100 µM (inactive) | GI50 (HOP-92): > 100 µM (inactive) | GI50 (HT-29): > 100 µM (inactive) | GI50 (IGROV-1): > 100 µM (inactive) | GI50 (K562): > 100 µM (inactive) | GI50 (KM-20L2): > 100 µM (inactive) | GI50 (KM12): > 100 µM (inactive) | GI50 (LOX IMVI): > 100 µM (inactive) | GI50 (LXFL 529): > 100 µM (inactive) | GI50 (M14): > 100 µM (inactive) | GI50 (M19-MEL): > 100 µM (inactive) | GI50 (MOLT-4): > 100 µM (inactive) | GI50 (Malme-3M): > 100 µM (inactive) | GI50 (NCI-H226): > 100 µM (inactive) | GI50 (NCI-H23): > 100 µM (inactive) | GI50 (NCI-H460): > 100 µM (inactive) | GI50 (NCI-H522): > 100 µM (inactive) | GI50 (OVCAR-3): > 100 µM (inactive) | GI50 (OVCAR-4): > 100 µM (inactive) | GI50 (OVCAR-8): > 100 µM (inactive) | GI50 (RPMI-8226): > 100 µM (inactive) | GI50 (RXF 393): > 100 µM (inactive) | GI50 (RXF 631): > 100 µM (inactive) | GI50 (SF-268): > 100 µM (inactive) | GI50 (SF-295): > 100 µM (inactive) | GI50 (SF-539): > 100 µM (inactive) | GI50 (SK-MEL-28): > 100 µM (inactive) | GI50 (SK-MEL-5): > 100 µM (inactive) | GI50 (SK-OV-3): > 100 µM (inactive) | GI50 (SN12C): > 100 µM (inactive) | GI50 (SNB-19): > 100 µM (inactive) | GI50 (SNB-75): > 100 µM (inactive) | GI50 (SNB-78): > 100 µM (inactive) | GI50 (SR): > 100 µM (inactive) | GI50 (SW-620): > 100 µM (inactive) | GI50 (TK-10): > 100 µM (inactive) | GI50 (U-251): > 100 µM (inactive) | GI50 (UACC-257): > 100 µM (inactive) | GI50 (UACC-62): > 100 µM (inactive) | GI50 (UO-31): > 100 µM (inactive) | GI50 (XF498): 35 µM (inactive)

C=C1C(=O)OC2/C=C(\COC(C)=O)CCC(OC(C)=O)C3=CC(OC3=O)C12 (stereo unspecified)
GI50 (786-0): 6.56 µM (inactive) | GI50 (A498): 16 µM (inactive) | GI50 (A549): 20 µM (inactive) | GI50 (ACHN): 3.12 µM (inactive) | GI50 (BT-549): 5.38 µM (inactive) | GI50 (CAKI-1): 3.03 µM (inactive) | GI50 (CCRF-CEM): 1.01 µM (active) | GI50 (COLO 205): 2.14 µM (inactive) | GI50 (DLD-1): 2.33 µM (inactive) | GI50 (DMS-114): 1.47 µM (inactive) | GI50 (DMS-273): 6.81 µM (inactive) | GI50 (DU-145): 36.1 µM (inactive) | GI50 (EKVX): 11.7 µM (inactive) | GI50 (HCC 2998): 14.4 µM (inactive) | GI50 (HCT-116): 2.48 µM (inactive) | GI50 (HCT-15): 2.94 µM | GI50 (HL-60): 2.23 µM (inactive) | GI50 (HOP-62): 19.8 µM (inactive) | GI50 (HOP-92): 3.49 µM (inactive) | GI50 (HT-29): 3.9 µM (inactive) | GI50 (Hs-578T): 24.2 µM (inactive) | GI50 (IGROV-1): 23.8 µM (inactive) | GI50 (K562): 2.3 µM (inactive) | GI50 (KM-20L2): 6.98 µM (inactive) | GI50 (KM12): 12.7 µM (inactive) | GI50 (LOX IMVI): 5.45 µM (inactive) | GI50 (LXFL 529): 1.67 µM (inactive) | GI50 (M14): 2.91 µM (inactive) | GI50 (MCF7): 3.69 µM (inactive) | GI50 (MDA-MB-231): 19.1 µM (inactive) | GI50 (MDA-MB-435): 10.6 µM (inactive) | GI50 (MDA-N): > 10 µM (inactive) | GI50 (MOLT-4): 1.58 µM (inactive) | GI50 (Malme-3M): 2.15 µM (inactive) | GI50 (NCI-H226): 23.9 µM (inactive) | GI50 (NCI-H23): 8.95 µM (inactive) | GI50 (NCI-H460): 19.5 µM (inactive) | GI50 (NCI-H522): 0.526 µM (active) | GI50 (OVCAR-3): 4.15 µM (inactive) | GI50 (OVCAR-4): 23.3 µM (inactive) | GI50 (OVCAR-5): 17.7 µM (inactive) | GI50 (OVCAR-8): 3.31 µM (inactive) | GI50 (PC-3): 16.4 µM (inactive) | GI50 (RPMI-8226): 3.53 µM (inactive) | GI50 (RXF 393): 1.59 µM (inactive) | GI50 (RXF 631): 8.13 µM (inactive) | GI50 (SF-268): 22.3 µM (inactive) | GI50 (SF-295): 18 µM (inactive) | GI50 (SF-539): 6.64 µM (inactive) | GI50 (SK-MEL-28): 3.99 µM (inactive) | GI50 (SK-MEL-2): 6.46 µM (inactive) | GI50 (SK-MEL-5): 11.6 µM (inactive) | GI50 (SK-OV-3): 14.6 µM (inactive) | GI50 (SN12C): 8.87 µM (inactive) | GI50 (SNB-19): 18 µM (inactive) | GI50 (SNB-75): 15.9 µM (inactive) | GI50 (SNB-78): 2.67 µM (inactive) | GI50 (SR): 2.3 µM (inactive) | GI50 (SW-620): 1.77 µM (inactive) | GI50 (T47D): 16.9 µM (inactive) | GI50 (TK-10): 5.28 µM (inactive) | GI50 (U-251): 12.2 µM (inactive) | GI50 (UACC-257): 3.57 µM (inactive) | GI50 (UACC-62): 4.26 µM (inactive) | GI50 (UO-31): 17.3 µM (inactive) | GI50 (XF498): 2.39 µM (inactive)
